Measured values: patent US9642875B2, “Compounds and their effects on appetite control and insulin sensitivity” (priority 2012, dated 2017)
“Also recorded” adds a separate entry of the source. Like-named read-outs stand apart in the source and are kept apart here.

Tests used:
[1] = tested on: Bifidobacterium spp (Bif164); experiment: faecal batch culture fermentation with fluorescent in situ hybridisation; format: cell-based
Experimental: (§1) Faecal samples were obtained from three healthy human volunteers (one female and two males; age 30-50 years; BMI 25-31). Volunteers were excluded if they suffered from any gastrointestinal disorder (e.g. ulcerative colitis, Crohn's disease, irritable bowel syndrome, peptic ulcers and cancer) and/or had taken antibiotics in the six months preceding sample donation. Samples were kept under anaerobic conditions (10% H2, 10% CO2 and 80% N2) and used within a maximum of 30 minutes following collection. Samples were diluted 1/10 w/w in anaerobic PBS (0.1 mol/1 phosphate buffer solution, pH 7.4) and homogenised in a stomacher (Stomacher 400, Seward, West Sussex, UK) for 2 minutes at normal speed.
Sterile batch culture fermenters (150 ml working volume) were set up in parallel and aseptically filled with 135 ml pre-reduced, sterile basal culture medium (peptone water 2 g/1 (Oxoid), yeast extract 2 g/1 (Oxoid, Basingstoke, UK), NaCl 0.1 g/l, K2HPO4 0.04 g/l, KH2PO4 0.04 g/l, MgSO4.7H2O 0.01 g/l, CaCl2.6H2O 0.01, NaHCO3 2 g/l, Tween 80 2 ml (BDH, Poole, UK), haemin 0.05 g/1, vitamin K1 10 cysteine.HCl 0.5 g/1, bile salts 0.5 g/1). The fermenters were gassed overnight with O2 free N2. Propionate inulin ester and inulin control substrates ( 1/10 w/v) were added to their respective fermenters just prior to the addition of the faecal slurry. […]

[2] = tested on: Atopobium cluster (Ato291); experiment: as above; format: cell-based; conditions: between 10 and 34 h
Experimental: as §1
(§2) Sterile batch culture fermenters (150 ml working volume) were set up in parallel and aseptically filled with 135 ml pre-reduced, sterile basal culture medium (peptone water 2 g/1 (Oxoid), yeast extract 2 g/1 (Oxoid, Basingstoke, UK), NaCl 0.1 g/l, K2HPO4 0.04 g/l, KH2PO4 0.04 g/l, MgSO4.7H2O 0.01 g/l, CaCl2.6H2O 0.01, NaHCO3 2 g/l, Tween 80 2 ml (BDH, Poole, UK), haemin 0.05 g/1, vitamin K1 10 cysteine.HCl 0.5 g/1, bile salts 0.5 g/1). The fermenters were gassed overnight with O2 free N2. […] A substrate-free vessel was set up for each volunteer as the negative control.

[3] = tested on: Bacteroides/Prevotella (Bac303); experiment: as above; format: cell-based; conditions: all sampling points
Experimental: as §1, §2

[4] = format: in vivo, human; conditions: 10 g, 24 hour pooled urine, n=5
Experimental: The mean (±SEM) age, weight and body mass index (BMI) was 32±4 years, 75.0±4.0 kg and 25.0±1.3 kg/m^2, respectively.
(§3) The inclusion criteria for the investigation were a BMI of 20 to 35 kg/m^2 and 21 to 65 years of age.
Subjects were studied on four occasions one week apart. […] Cumulative ^13CO2 excretion was also calculated. Blood was collected serially throughout the study.
Plasma was collected at −15, 0, 15, 30, 60, 90, 120, 180, 240, 300, 360 min for analysis of ^13C propionate enrichment by GC-combustion-IRMS (GC-C-IRMS). Acetate ^13C enrichment was also measured in the same analysis as a control for dietary influence on SCFA ^13C enrichment and for evidence of inter-conversion between propionate and acetate. Data were expressed as δ^13C (per mil or ‰) which represents the change in the measured ratio in parts per thousand from the internationally accepted standard carbon Vienna Pee Dee Belemnite (VPDB). Urine was analyzed for ^13C propionate by GC-C-IRMS. Urine was collected and pooled from just before consumption of the propionate ester for a period of 24 hours. Two 25 ml aliquots were collected and stored at −20° C. until analysis. Isotopic enrichment was expressed as δ^13C (‰). SCFA concentrations (mmol/L) were measured relative to an internal standard (3-methyl valerate).

[5] = Excerpt: Healthy men and women aged 40-65 years, with a BMI of 25-40 kg/m^2 were recruited from the general public. Potential subjects were excluded if they had clinically significant illnesses (including type 1 or type 2 diabetes), were taking medication known to affect appetite and/or body weight, a weight loss of 3 kg or greater in the preceding two months, smoking, substance abuse, psychiatric illness, restrained eating (Dutch eating behavior questionnaire: male score >2.25; female score >2.80), and any abnormalities detected on physical examination, electrocardiography, or screening blood tests (measurement of complete blood count, electrolytes, fasting glucose, thyroid function and liver function). Women were ineligible if they were pregnant or breast-feeding. […] The study was carried out in accordance with the Declaration of Helsinki.
The study was conducted in a randomized, double-blind, placebo-controlled, parallel design. Two-day study visits were required at baseline (week 0) and after 24 weeks of dietary supplementation. On the day prior to each study visit, subjects were asked to consume a standard evening meal, fast overnight from 22:00 and to avoid strenuous physical activity and alcohol. All study visits commenced between 08:00 and 09:00. […] The dietary supplement was supplied to subjects in ready-to-use sachets and they were instructed to mix the contents into their normal diet once a day during the 24 week treatment period. All subjects were instructed to maintain their usual dietary and activity habits during the intervention period. […] After 8 and 16 weeks of the intervention period, subjects were invited to attend follow-up visits to record body weight and monitor compliance and gastrointestinal side-effects. After 24 weeks, measurements taken at baseline were repeated. Subjects returned all their used and unused sachets to estimate compliance. Symptom diary was also collected over the period of the study.
At study visits, a cannula was inserted into an antecubital vein and baseline blood samples were collected at −10 and 0 min to assess plasma concentrations of glucose, insulin, PYY and GLP-1. Following the 0 min sample, subjects were served a standardized breakfast (398 kcal; 71.2 g CHO, 7.9 g fat, 10.3 g protein). […] Postprandial blood samples were taken at 15, 30, 60, 90, 120, 180, 240 and 300 min and collected into heparin-coated tubes containing 0.2 ml of aprotinin (Bayer, UK). GLP-1- and PYY-like immunoreactivity was measured using specific and sensitive in-house radioimmunoassays. Insulin-like immunoreactivity was measured using an ultra-sensitive human insulin radioimmunoassay (Millipore) and plasma glucose was measured using an Abbott Architect ci8200 analyser (Abbott Diagnostics, USA). At 300 min subjects were offered a buffet lunch with food served in excess and subjects were asked to eat until they were comfortably full. The amount of food was quantified and energy intake calculated. Subjective hunger, satiety, and nausea were monitored with the use of 100 mm visual analog scales (VAS). Subjects were asked to complete the VAS before each blood sample. In addition, breath H2 was measured at 0, 60, 120, 180, 240 and 300 min (Bedfont Scientific, Kent UK) in a subset of each group (9 in the propionate ester group, 8 in the inulin control group).
Body composition was assessed using magnetic resonance imaging (MRI) and spectroscopy (MRS). […] Body weight was measured in all subjects to the nearest 0.1 kg (TBF-300, Tanita) and taken while subjects were wearing light clothing.

[6] = format: in vivo, human
Experimental: Twenty healthy subjects (15 males and 5 females) were recruited for the food intake investigation. The mean (±SEM) age, weight and body mass index (BMI) was 31±2 years, 75.0±3.0 kg and 25.4±0.8 kg/m^2, respectively.
as §3
The study was performed in a randomized, double-blind, crossover manner, with each subject studied on two occasions >4 days apart. […] The amount of food was quantified preprandially and postprandially, and energy intake was calculated. […] In addition, VAS were also completed to assess the palatability of the standardized breakfast.
Differences in energy intake and incremental area under the curve (iAUC) for plasma hormone levels and VAS between trials were assessed using Paired Student's t tests. […] Significant effects were followed up by post hoc comparisons (Dunnett). P values<0.05 were considered statistically significant. Data are presented as means±SEM.

[7] = 24 weeks vs baseline, fasting blood, listed as control
[8] = 10 g, 0-420 minute post oral administration, 20 subjects

inulin
Bif164 labelled cells compared to baseline ([1]; all time points (10, 24, 34, 48 h)): significantly increased | Bif164 levels compared to propionate inulin ester cultures ([1]; throughout fermentation): significantly higher | Ato291 labelled cells compared to baseline [2]: increased significantly | Bac303 labelled cells compared to baseline [3]: significant increases | urine 13C propionate enrichment δ13C [4]: −23.3±1.8 ‰ | body weight gained ([5]; 10 g/day, after 24 weeks): 0.38 ± 0.69 kg | breath hydrogen area under curve ([5]; 24 weeks): 5000±1480 | fasting breath hydrogen ([5]; 24 weeks): 19.1±7 ppm | fasting glucose, insulin, HbA1c and triglyceride concentrations ([5]; 24 weeks): no significant effect | alanine transaminase [5, 7]: significantly reduced; also recorded: significant improvements | alkaline phosphatase [5, 7]: significantly reduced; also recorded: significant improvements | total cholesterol [5, 7]: significantly reduced; also recorded: significant improvements | subjects with substantial weight gain (≧5% baseline weight) ([5]; 24 weeks, number of subjects): 4 of 24 | subjects with weight gain ≧3% baseline weight ([5]; 24 weeks, number of subjects): 6 of 24 | ratio of internal adipose tissue:subcutaneous adipose tissue, within group ([5]; 24 weeks, p=0.002): significantly increased | internal adipose tissue, within group ([5]; 24 weeks, p=0.049): significantly increased | subjects with substantial weight gain (≧5% baseline weight) ([5]; 24 weeks, proportion): 17% | subjects with weight gain ≧3% baseline weight ([5]; 24 weeks, proportion): 25% | breath hydrogen area under curve ([5]; baseline): 2355±800 | fasting breath hydrogen ([5]; baseline): 9±3 ppm | GLP-1 ΔAUC0-300 min ([5]; baseline (week 0)): 3441 ± 843 pmol/L | food intake at buffet lunch ([5]; baseline (week 0)): 678 ± 69 kcal | insulin response AUC0-300 min ([5]; baseline (week 0)): 9285±882 μU/mL | plasma PYY ΔAUC0-300 min ([5]; baseline (week 0)): 962 ± 869 pmol/L | glycemic response AUC0-300 min ([5]; baseline (week 0), standardized breakfast): 1600 ± 51 pmol/L | plasma PYY and GLP-1 release, week 24 vs baseline ([5]; postprandial period, within group): unaffected | GLP-1 ΔAUC0-300 min ([5]; week 24): 2278 ± 1000 pmol/L | bloating and flatulence (side effect profile) ([5]; week 24): significant increase | food intake at buffet lunch ([5]; week 24): 651 ± 64 kcal | insulin response AUC0-300 min ([5]; week 24): 8781±731 μU/mL | plasma PYY ΔAUC0-300 min ([5]; week 24): 656 ± 880 pmol/L | glycemic response AUC0-300 min ([5]; week 24, standardized breakfast): 1691 ± 54 pmol/L | reduction of food intake ([5]; week 24 vs baseline): 4.0% | insulin response, week 24 vs baseline ([5]; within group): not significantly different | postprandial glucose (glycemic) response, week 24 vs baseline ([5]; within group, listed as control): significantly greater; also recorded: significant deterioration | fullness ratings, average iAUC [6, 8]: 26.6±2.9 | hunger ratings, average iAUC [6, 8]: −24.3±4.7 | pleasantness ratings, average iAUC [6, 8]: −26.6±4.6 | prospective food intake ratings, average iAUC [6, 8]: −19.9±3.6 | sickness ratings, average iAUC [6, 8]: −1.6±1.4 | glucose levels, average iAUC ([6]; 10 g, whole meal test): 0.28±0.12 | insulin levels, average iAUC ([6]; 10 g, whole meal test): 32.5±4.7 | food intake during standardised ad libitum buffet meal ([6]; 7 hours after intake of 10 g supplement, 20 subjects, mean±SEM): 1175 ± 104 kcal
